Measured values from publication PMC4535455 (International journal of pharmaceutics, 2015).
Values after ≈ are worked out from the molar mass of the structure shown. Where a SMILES comes first, the peptide text is derived from it. [ ]: non-standard residue; d: D form. Sar = CNCC(=O)O

What was measured:
peptide transporters = experiment: [3H]-GlySar cellular uptake in MDCK-MDR1 cells; assay type: cell-based; conditions: DPBS pH 7.4, 37 °C
MDCK-WT cells = experiment: Cytotoxicity by LDH assay; assay type: cell-based
[1] = Aqueous solubility studies

## CN(CC(=O)O)C(=O)CN [Gly-Sar] (H-Gly-[Sar]-OH)
Peptide transporters; 1 mM
  [3H]-GlySar uptake in the presence of compound (percentage of control): 40%
Peptide transporters; 2 mM
  [3H]-GlySar uptake in the presence of compound (percentage of control): 30%

## Triton x-100
MDCK-WT cells; 1%, positive control
  Cytotoxicity (LDH release): displayed significant cytotoxicity
  Increase in absorbance (LDH) versus negative control: About 5 fold

## C[C@]12C=CC(=O)C=C1CC[C@@H]1[C@@H]2[C@@H](O)C[C@@]2(C)[C@H]1CC[C@]2(O)C(=O)CO [prednisolone, Prednisolone]
Peptide transporters; 100 µM
  [3H]-GlySar uptake in the presence of compound (percentage of control): No significant inhibition
MDCK-WT cells; 5–250 µM, 4 h
  Cytotoxic effects (LDH release): did not generate any cytotoxic effects
[1]
  solubility at 4 h: 310 ± 30 µg/mL (≈ 860 µM)
